Assay results as given in patent US20260007601A1, “IONIZABLE CATIONIC LIPID COMPOUND AND COMPOSITION FOR DELIVERING NUCLEIC ACID AND USE THEREOF” (BEIJING YOUCAREKECHUANG PHARMACEUTICAL TECHNOLOGY CO., LTD., priority 2023, published 2026).
One block for each molecule: values may come before it.

Assays:
293T cells [1] = assay: Cell survival rate assay (CCK-8); assay type: cell-based; details: for Cell survival rate: LNP containing 1.5 μg Fluc-mRNA, 24 hours, CCK-8
Protocol: (§1) Cell recovery and passaging: 293T cells were recovered and cultured in culture dishes to the required cell number.
(§2) Plating: The cells in the culture dish were digested, counted, plated in a 96-well plate at 10,000 cells per well, or in a 12-well plate at 150,000 cells per well, and cultured overnight until the cells adhered to the wall.
(§3) Cell recovery and passage: The method was the same as in Example 3.
(§4) Plating: The method was the same as Example 3.
The LNP formulations containing 1.5 μg Fluc-mRNA (prepared according to Example 4, the LNP formulation carrier components are cationic lipids, neutral lipids, structured lipids and polymer-conjugated lipids at a molar ratio of 49:10:39.5:1.5, wherein the cationic lipids are the cationic lipids listed in Table 1) and the Lipofectamine 3000 formulation were added to the cell culture medium of the 96-well plate, and the culture was continued for 24 hours. Then, 10 μL of CCK-8 solution was added to each well, and the culture plate was incubated in the incubator for 1 hour, and the absorbance at 450 nm was measured by a microplate reader.

293T cells [2] = assay: Fluorescence detection of Fluc-mRNA (cell transfection efficiency of LNP formulations); assay type: cell-based; details: for Relative light unit (RLU): LNP containing 0.3 μg Fluc-mRNA, 24 hours; for Multiples of values that equivalent to YK-201: RLU of YK-201 / RLU of the named lipid; for Multiples of values that equivalent to YK-202: RLU of YK-202 / RLU of the named lipid; for Ratio relative to SM-102: RLU of the named lipid / RLU of SM-102, times that of SM-102; for Multiples of values that equivalent to YK-209: RLU of YK-209 / RLU of the named lipid
Protocol: as §1, §2, §3, §4
The LNP formulation containing 0.3 μg Fluc-mRNA (prepared according to Example 4, the LNP formulation carrier components were cationic lipids, neutral lipids, structured lipids and polymer-conjugated lipids at a molar ratio of 49:10:39.5:1.5, and the cationic lipids were cationic lipids listed in Table 1) was added to the cell culture medium of a 96-well plate, and cultured for 24 hours. After that, the corresponding reagents were added according to the instructions of the Gaussia Luciferase Assay Kit, and the fluorescence expression intensity of each well was detected by the IVIS fluorescence detection system. This experiment verified the transfection efficiency of the LNP formulation in the cell, and the specific detection results are shown in Tables 6-9.

[3] = Particle size and polydispersity index (PDI) of nanolipid particles, dynamic light scattering; assay type: physicochemical; details: LNP formulation prepared from the named cationic lipid, 25° C
Protocol: The particle size and polydispersity index (PDI) were determined by dynamic light scattering method using a Malvern laser particle size analyzer. 10 μL of liposome solution was diluted to 1 mL with RNase-free deionized water and added to a sample pool. Each sample was measured three times. The measurement conditions were: 90° scattering angle, 25° C.

female BALB/C mice = assay: Mouse in vivo imaging of Fluc-mRNA LNP formulations; set-up: average radiation intensity (mRNA expression): unit not given here; details: for average radiation intensity (mRNA expression): 10 μg Fluc-mRNA LNP intramuscularly
Protocol: The LNP formulation containing 10 μg Fluc-mRNA (prepared according to Example 4) was injected intramuscularly into female BALB/C mice aged 4 to 6 weeks and weighing 17 to 19 g, and the mice were intraperitoneally injected with fluorescent imaging substrates at specific time points (6 h, 24 h, 48 h and 7 d) after administration. The mice moved freely for 5 minutes, and then the average radiation intensity (corresponding to the fluorescence expression intensity) of the protein expressed by the mRNA carried by the LNP in the mice was detected by IVIS Spectrum small animal in vivo imager. The test results are shown in Tables 14 to 17 and FIGS. 12 to 14.

[4] = Encapsulation rate, drug loading concentration and total RNA concentration detection (RiboGreen); assay type: physicochemical; details: for Drug loading concentration / Encapsulation rate / Total RNA concentration: LNP formulation of the named lipid
Description: Encapsulation rate is a key quality attribute of liposomes. It refers to the percentage of drug content encapsulated in the lipid bilayer to the total amount of drug added, which can reflect the degree of drug encapsulation in liposomes. The Chinese Pharmacopoeia stipulates that the encapsulation rate should usually not be less than 80%.
The drug loading capacity is the ratio of the amount of drug in the liposome to the total amount of drug and carrier in the liposome. The drug loading capacity directly affects the clinical application dose of the drug, so the larger the drug loading capacity, the more it can meet clinical needs. The drug loading concentration is proportional to the drug loading capacity, and the relative proportion of the drug loading concentration can represent the relative proportion of the drug loading capacity. The relative proportion of the total RNA concentration can represent the relative proportion of the amount of mRNA carried by the LNP formulation.
1×TE buffer, 0.1% Triton X-100 buffer, and RiboGreen reagent (1:200) and mRNA standard stock solution were prepared.
An appropriate amount of sample was taken and added to an appropriate amount of 1×TE buffer, which was diluted to a solution containing about 2.8 μg of the test sample per 1 mL. Then the sample was added to a 96-well plate, where 50 μL of the diluted test sample or mRNA standard stock solution was added to each well, and then added with 1×TE buffer and 0.1% Triton X-100 buffer. The samples were incubated at 37° C. for 10 minutes, and 100 μL of RiboGreen reagent (1:200) was added to each well of the 96-well plate. The plate was centrifuged, and read using an ELISA reader, and the data was processed.

- PDI [3]: 19.2%
- Particle size [3]: 145 nm
- Drug loading concentration [4]: 25.44 µg/mL
- Encapsulation rate [4]: 62.3%
- Total RNA concentration [4]: 35.27 µg/mL
SMILES: CCCCCCCCCCCOC(=O)CCCCCN(CCO)CCCCCCCC(=O)OC(CCCCCCCC)CCCCCCCC [SM-102, reference compound]
- Cell survival rate (293T cells [1]): 68.55%
- Relative light unit (RLU) (293T cells [2]): 1665874 RLU
- Multiples of values that equivalent to YK-201 (293T cells [2]): 17.10
- Multiples of values that equivalent to YK-202 (293T cells [2]): 17.98
- Ratio relative to SM-102 (293T cells [2]): 1.00
- average radiation intensity (mRNA expression) (female BALB/C mice; 6 h): 678870
- average radiation intensity (mRNA expression) (female BALB/C mice; 24 h): 115800
- average radiation intensity (mRNA expression) (female BALB/C mice; 48 h): 30560
- average radiation intensity (mRNA expression) (female BALB/C mice; 7 d): 5903

- PDI [3]: 13.0%
- Particle size [3]: 202 nm
- Drug loading concentration [4]: 26.86 µg/mL
- Encapsulation rate [4]: 63.0%
- Total RNA concentration [4]: 38.62 µg/mL
SMILES: CCCCCCCCCCOC(=O)CCCN(CCO)CCCCCC(=O)OCC(CCCCCCCC)CCCCCCCC [YK-009, reference compound]
- Cell survival rate (293T cells [1]): 72.88%
- Relative light unit (RLU) (293T cells [2]): 5125986 RLU
- Multiples of values that equivalent to YK-201 (293T cells [2]): 5.56
- Multiples of values that equivalent to YK-202 (293T cells [2]): 5.84
- Multiples of values that equivalent to YK-209 (293T cells [2]): 5.24
- Ratio relative to SM-102 (293T cells [2]): 3.08
- average radiation intensity (mRNA expression) (female BALB/C mice; 6 h): 1012400
- average radiation intensity (mRNA expression) (female BALB/C mice; 24 h): 767850
- average radiation intensity (mRNA expression) (female BALB/C mice; 48 h): 128570
- average radiation intensity (mRNA expression) (female BALB/C mice; 7 d): 10741

SMILES: CCCCCCCCCCOC(=O)CCCN(CCCCCC(=O)OCC(CCCCCCCC)CCCCCCCC)CCN(C)CCO [YK-207, 2-octyldecyl-6-(2-((2-(2-hydroxyethyl(methyl)amino)ethyl)(4-oxo-4-((decyloxy)butyl)amino) hexanoate]
- Cell survival rate (293T cells [1]): 73.88%
- cell survival rate higher than that of ALC-0315 (293T cells [1]; difference of rates): 23.92%
- cell survival rate higher than that of HHMA (293T cells [1]; difference of rates): 8.32%
- cell survival rate higher than that of Lipofectamine 3000 (293T cells [1]; difference of rates): 50.83%
- cell survival rate higher than that of SM-102 (293T cells [1]; difference of rates): 5.33%
- cell survival rate higher than that of compound 21 (293T cells [1]; difference of rates): 4.86%
- cell survival rate higher than that of compound 23 (293T cells [1]; difference of rates): 3.78%
- RLU / cell transfection efficiency, times that of ALC-0315 (293T cells [2]; Fluc-mRNA LNP): 9 times
- RLU / cell transfection efficiency, times that of HHMA (293T cells [2]; Fluc-mRNA LNP): 10 times
- RLU / cell transfection efficiency, times that of Lipofectamine 3000 (293T cells [2]; Fluc-mRNA LNP): 17 times
- RLU / cell transfection efficiency, times that of YK-009 (293T cells [2]; Fluc-mRNA LNP): 4 times
- RLU / cell transfection efficiency, times that of compound 21 (293T cells [2]; Fluc-mRNA LNP): 14 times
- RLU / cell transfection efficiency, times that of compound 23 (293T cells [2]; Fluc-mRNA LNP): 15 times
- cell transfection efficiency, times that of YK-221 (293T cells [2]; Fluc-mRNA LNP): 960.71 times
- fluorescence absorption value / cell transfection efficiency, times that of YK-220 (293T cells [2]; Fluc-mRNA LNP): 124.13 times
- Relative light unit (RLU) (293T cells [2]): 20878758 RLU
- Multiples of values that equivalent to YK-201 (293T cells [2]): 1.36
- Multiples of values that equivalent to YK-202 (293T cells [2]): 1.43
- Multiples of values that equivalent to YK-209 (293T cells [2]): 1.29
- PDI [3]: 18.9%
- Particle size [3]: 192 nm
- average radiation intensity (mRNA expression) (female BALB/C mice; 6 h): 1974100
- average radiation intensity (mRNA expression) (female BALB/C mice; 24 h): 1523040
- average radiation intensity (mRNA expression) (female BALB/C mice; 48 h): 525800
- average radiation intensity (mRNA expression) (female BALB/C mice; 7 d): 22896
- mRNA expression level in mice can reach, times that of ALC-0315 (female BALB/C mice; time point not stated): 13 times
- mRNA expression level in mice can reach, times that of HHMA (female BALB/C mice; time point not stated): 16 times
- mRNA expression level in mice can reach, times that of SM-102 (female BALB/C mice; time point not stated): 16 times
- mRNA expression level in mice can reach, times that of compound 21 (female BALB/C mice; time point not stated): 16 times
- mRNA expression level in mice can reach, times that of compound 23 (female BALB/C mice; time point not stated): 16 times
- drug loading concentration, times that of ALC-0315 [4]: 1.52 times
- drug loading concentration, times that of HHMA [4]: 1.29 times
- drug loading concentration, times that of SM-102 [4]: 1.56 times
- drug loading concentration, times that of YK-009 [4]: 1.47 times
- drug loading concentration, times that of compound 21 [4]: 1.75 times
- drug loading concentration, times that of compound 23 [4]: 1.91 times
- total RNA concentration, times that of ALC-0315 [4]: 1.18 times
- total RNA concentration, times that of HHMA [4]: 1.15 times
- total RNA concentration, times that of SM-102 [4]: 1.24 times
- total RNA concentration, times that of YK-009 [4]: 1.13 times
- total RNA concentration, times that of compound 21 [4]: 1.42 times
- total RNA concentration, times that of compound 23 [4]: 1.34 times
- Drug loading concentration [4]: 39.60 µg/mL
- Encapsulation rate [4]: 90.8%
- Total RNA concentration [4]: 43.63 µg/mL
- encapsulation rate higher than that of ALC-0315 ([4]; difference of rates): 28.00%
- encapsulation rate higher than that of HHMA ([4]; difference of rates): 30.30%
- encapsulation rate higher than that of SM-102 ([4]; difference of rates): 28.50%
- encapsulation rate higher than that of YK-009 ([4]; difference of rates): 27.80%
- encapsulation rate higher than that of compound 21 ([4]; difference of rates): 33.00%
- encapsulation rate higher than that of compound 23 ([4]; difference of rates): 35.60%
